According to patent US20220220152A1, “BIVALENT ANTAGONISTS OF INHIBITORS OF APOPTOSIS PROTEINS” (Hepagene Therapeutics (HK) Limited, priority 2019, published 2022):

What was measured:
[1] = target: T1, cIAP1-BIR3 (Homo sapiens, UniProt Q13490); assay: cIAP1-BIR3 fluorescence polarization binding assay; details: FP, probe AbuRPFK-5FAM (SM5F) 5 nM, cIAP1-BIR3 15 nM, 60 min at 25° C.
T1 construct: cIAP1-BIR3; purchased Reaction Biology APT-11-370
Source text: (§1) IAPs are one main cause of cancer development and may result from overexpression of anti-apoptotic proteins. This protocol establishes three binding assays for […] Bir3 domain, cIAP1 and cIAP2 using FP (fluorescence polariation) technology. The fluorescence probe used is a synthetic peptide conjugated to 5-carboxyfluorescein (AbuRPFK-5FAM). The fluorescence polarization value (mP) was detected by Envision, which was used to reflect the binding degree of protein and fluorescent marker.
(§2) • a. Prepare 100 times of the final cpd concentration in appropriate tube and transfer 5 uL cpd to 45 μL 1× reaction buffer with 10% DMSO • b. The final reference cpd concentration is 10000, 3333.3, 1111.1, 370.4, 123.4, 41.2, 13.7, 4.57, 1.52, 0.51, 0.17 and 0 nM. So the 100 times of the concentration is 1000, 333.3, 111.1, 37.04, 12.34, 4.12, […], 0.15, 0.05, 0.017 and 0 μM. The final test cpds concentration is 3333.3, 1111.1, 370.4, 123.4, 41.2, 13.7, 4.57, 1.52, 0.51, 0.17, 0.057 and 0 nM. So the 100 times of the concentration is 333.3, 111.1, 37.04, 12.34, 4.12, […], 0.15, 0.05, 0.017, 0.0057 and […] • c. Add 8 μL/well each dose enzyme to 384 wen microplate (ProxiPlate-384 F Plus, 6008260) using multichannel pipette, prepared in Table 3. • d. Centrifuge at 1000 rpm • e. Add 2 μL/well cpd to 384 well microplate (ProxiPlate-384 F Plus, 6008260) using multichannel pipette, prepared in step a). • f. Centrifuge at 1000 rpm RT, 15 min. • g Start the assay by adding 10 uL/well substrate (prepared in Table 4) to the same 384 wen microplate using multichannel pipette. • h. Centrifuge at 1000 rpm. • i. Cover the assay plate and incubate for 60 min at 25° C. • j. Read on Envision 2104 for mP and plot the IC50s with mP values. • k. Data analysis: IC50s were determined based on a non-linear regression analysis of data collected.

[2] = target: T2, XIAP-BIR3 (Homo sapiens, UniProt P98170); assay: XIAP-BIR3 fluorescence polarization binding assay; details: FP, probe AbuRPFK-5FAM (SM5F) 5 nM, XIAP-BIR3 40 nM, 60 min at 25° C.
T2 construct: XIAP-BIR3; purchased Reaction Biology APT-11-374
Source text: as §1, §2

[3] = target: T3, cIAP2-BIR3 (Homo sapiens, UniProt Q13489); assay: cIAP2-BIR3 fluorescence polarization binding assay; details: FP, probe AbuRPFK-5FAM (SM5F) 5 nM, cIAP2-BIR3 80 nM, 60 min at 25° C.
T3 construct: cIAP2-BIR3; purchased Reaction Biology APT-11-372
Source text: as §1, §2

T2 sequence (P98170 241-356 limits assumed): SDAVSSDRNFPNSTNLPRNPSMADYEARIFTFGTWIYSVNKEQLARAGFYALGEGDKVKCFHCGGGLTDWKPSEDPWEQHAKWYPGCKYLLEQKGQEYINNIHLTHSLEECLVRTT
T3 sequence (Q13489 238-349 limits assumed): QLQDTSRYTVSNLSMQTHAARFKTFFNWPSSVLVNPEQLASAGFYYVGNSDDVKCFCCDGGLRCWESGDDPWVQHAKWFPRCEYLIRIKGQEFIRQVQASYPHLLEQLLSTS
T1 sequence (Q13490 253-363 limits assumed): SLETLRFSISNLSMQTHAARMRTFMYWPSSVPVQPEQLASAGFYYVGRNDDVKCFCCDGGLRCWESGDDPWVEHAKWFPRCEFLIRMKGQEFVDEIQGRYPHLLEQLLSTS

| IC50 [1] [nM] | IC50 [2] [nM] | IC50 [3] [nM] | Compound |
| --- | --- | --- | --- |
| 1 to 10 | – | – | CN[C@@H](C)C(=O)N[C@H](C(=O)N1CCC[C@H]1C(=O)N[C@@H]1CCCc2c1cccc2N1CCN(c2cccc3c2CCC[C@H]3NC(=O)[C@@H]2CCCN2C(=O)[C@@H](NC(=O)[C@H](C)NC)C2CCCCC2)CC1)C1CCCCC1 [Compound VIII-C, (2S,2'S)—N,N′-((1R,1′R)-piperazine-1,4-diylbis(1,2,3,4-tetrahydronaphthalene-5,1-diyl))bis(1-((S)-2-cyclohexyl-2-((S)-2-(methylamino)propanamido)acetyl)pyrrolidine-2-carboxamide)] |
| 1 to 10 | 10 to 100 | 10 to 100 | CC[C@H](NC(=O)[C@H](C)NC)C(=O)N1CCC[C@H]1C(=O)N[C@@H]1CCCc2c(Oc3cccc4c3CCC[C@H]4NC(=O)[C@@H]3CCCN3C(=O)[C@H](CC)NC(=O)[C@H](C)NC)cccc21 [Compound X-A] |
| 1 to 10 | 10 to 100 | 10 to 100 | CC[C@H](NC(=O)[C@H](C)NC)C(=O)N1CCC[C@H]1C(=O)N[C@@H]1CCCc2c(NC(=O)c3cccc4c3CCC[C@H]4NC(=O)[C@@H]3CCCN3C(=O)[C@H](CC)NC(=O)[C@H](C)NC)cccc21 [Compound VII-C, (2S)-1-[(2S)-2-[(2S)-2-(methylamino)propanamido]butanoyl]-N-[(1R)-5-[[(5R)-5-[(2S)-1-[(2S)-2-[(2S)-2-(methylamino)propanamido]butanoyl]pyrrolidine-2-amido]-5,6,7,8-tetrahydmnaphthalen-1-yl]carbamoyl]-1,2,3,4-tetrahydmnaphthalen-1-yl]pyrrolidine-2-carboxamide] |
| 1 to 10 | – | – | CC[C@H](NC(=O)[C@H](C)NC)C(=O)N1CCC[C@H]1C(=O)N[C@@H]1CCCc2c1cccc2N1CCN(c2cccc3c2CCC[C@H]3NC(=O)[C@@H]2CCCN2C(=O)[C@H](CC)NC(=O)[C@H](C)NC)CC1 [VIII-E, (2S,2'S)—N,N′-((1R,1′R)-piperazine-1,4-diylbis(1,2,3,4-tetrahydonaphthalene-5,1-diyl))bis(1-((S)-2-((S)-2-(methylamino)propanamido)butanoyl)pyrrolidine-2-carboxamide)] |
| 1 to 10 | 10 to 100 | 10 to 100 | CN[C@@H](C)C(=O)N[C@H](C(=O)N1CCC[C@H]1C(=O)N[C@@H]1CCc2c(OCCOCCOc3cccc4c3CC[C@H]4NC(=O)[C@@H]3CCCN3C(=O)[C@@H](NC(=O)[C@H](C)NC)C3CCCCC3)cccc21)C1CCCCC1 [Compound II-F, (2S)-1-[(2S)-2-cyclohexyl-2-[(2S)-2-(methylamino)propanamido]acetyl]-N-[(1R)-4-[2-(2-[[(1R)-1-[(2S)-1-[(2S)-2-cyclohexyl-2-[(2S)-2-(methylamino)propanamido]acetyl]pyrrolidine-2-amido]-2,3-dihydro-1H-inden-4-yl]oxy]ethoxy)ethoxy]-2,3-dihydro-1H-inden-1-yl]pyrrolidine-2-carboxamide] |
| 1 to 10 | 10 to 100 | 1 to 10 | CN[C@@H](C)C(=O)N[C@H](C(=O)N1CCC[C@H]1C(=O)N[C@@H]1CCCc2c(-c3cccc4c3CCC[C@H]4NC(=O)[C@@H]3CCCN3C(=O)[C@@H](NC(=O)[C@H](C)NC)C(C)C)cccc21)C(C)C [Compound V-M, (2S)-1-[(2S)-3-methyl-2-[(2S)-2-(methylamino)propanamido]butanoyl]-N-[(5R,5′R)-5′-[(2S)-1-[(2S)-3-methy-2-[(2S)-2-(methylamino)propanamido]butanoyl]pyrolidine-2-amido]-5H,5′H,6H,6′H,7H,7′H,8H,8′H-[1,1′-binaphthalen]-5-yl]pyrrolidine-2-carboxamide] |
| 1 to 10 | 10 to 100 | 1 to 10 | CC[C@H](NC(=O)[C@H](C)NC)C(=O)N1CCC[C@H]1C(=O)N[C@@H]1CCCc2c(OCCCCCOc3cccc4c3CCC[C@H]4NC(=O)[C@@H]3CCCN3C(=O)[C@H](CC)NC(=O)[C@H](C)NC)cccc21 [Compound I-D, (2S)-1-[(2S)-2-[(2S)-2-(methylamino)propanamido]butanoyl]-N-[(1R)-5-[(5-[[(5R)-5-[(2S)-1-[(2S)-2-[(2S)-2-(methylamino)propanamido]butanoyl]pyrrolidine-2-amido]-5,6,7,8-tetrahydronaphthalen-1-yl]oxy]pentyl)oxy]-1,2,3,4-tetrahydronaphthalen-1-yl]pyrrolidine-2-carboxamide] |
| 1 to 10 | 10 to 100 | 1 to 10 | CN[C@@H](C)C(=O)N[C@H](C(=O)N1CCC[C@H]1C(=O)N[C@@H]1CCCc2c(OCCCCCOc3cccc4c3CCC[C@H]4NC(=O)[C@@H]3CCCN3C(=O)[C@@H](NC(=O)[C@H](C)NC)C3CCOCC3)cccc21)C1CCOCC1 [Compound I-A, (S)-1-((S)-2-((S)-2-(methylamino)propanamido)-2-(tetrahydro-2H-pyran-4-yl)acetyl)-N—((R)-5-((5-(((R)-5-((S)-1-((S)-2-((S)-2-(methylamino)propanamido)-2-(tetrahydro-2H-pyran-4-yl)acetyl)pyrrolidine-2-carboxamido)-5,6,7,8-tetrahydronaphthalen-1-yl)oxy)pentyl)oxy)-1,2,3,4-tetrahydmnaphthalen-1-yl)pyrrolidine-2-carboxamide] |
| 1 to 10 | 1 to 10 | 1 to 10 | CN[C@@H](C)C(=O)N[C@H](C(=O)N1CCC[C@H]1C(=O)N[C@@H]1CCCc2c(-c3cccc4c3CCC[C@H]4NC(=O)[C@@H]3CCCN3C(=O)[C@@H](NC(=O)[C@H](C)NC)C3CCCCC3)cccc21)C1CCCCC1 [Compound V-N, (2S)-1-[(2S)-2-cyclohexyl-2-[(2S)-2-(methylamino)propanamido]acetyl]-N-[(1R)-5-[(5R)-5-[(2S)-1-[(2S)-2-cyclohexyl-2-[(2S)-2-(methylamino)propanamido]acetyl]pyrolidine-2-amido]-5,6,7,8-tetrahydronaphthalen-1-yl]-1,2,3,4-tetrahydronaphthalen-1-yl]pyrrolidine-2-carboxamide] |
| 1 to 10 | – | – | CN[C@@H](C)C(=O)N[C@H](C(=O)N1CCC[C@H]1C(=O)N[C@@H]1CCCc2c1cccc2N1CCN(c2cccc3c2CCC[C@H]3NC(=O)[C@@H]2CCCN2C(=O)[C@@H](NC(=O)[C@H](C)NC)C(C)(C)C)CC1)C(C)(C)C [Compound VIII-D, (2S,2′S)—N,N′-((1R,1′R)-piperazine-1,4-diylbis(1,2,3,4-tetrahydronaphthalene-5,1-diyl))bis(1-((S)-3,3-dimethyl-2-((S)-2-(methylamino)propanamido)butanoyl)pyrolidine-2-carboxamide)] |
| 1 to 10 | – | – | CN[C@@H](C)C(=O)N[C@H](C(=O)N1CCC[C@H]1C(=O)N[C@@H]1CCCc2c1cccc2N1CCN(c2cccc3c2CCC[C@H]3NC(=O)[C@@H]2CCCN2C(=O)[C@@H](NC(=O)[C@H](C)NC)C(C)C)CC1)C(C)C [VIII-F, (2S,2'S)—N,N′-((1R,1′R)-piperazine-1,4-diylbis(1,2,3,4-tetrahydonaphthalene-5,1-diyl))bis(1-(methyl-L-alanyl-L-valyl)pyrrolidine-2-carboxamide)] |

| Compound | IC50 [1] [nM] | IC50 [2] [nM] | IC50 [3] [nM] |
| --- | --- | --- | --- |
| CN[C@@H](C)C(=O)N[C@H](C(=O)N1CCC[C@H]1C(=O)N[C@@H]1CCCc2c(OCCc3ccc(CCOc4cccc5c4CCC[C@H]5NC(=O)[C@@H]4CCCN4C(=O)[C@@H](NC(=O)[C@H](C)NC)C4CCCCC4)cc3)cccc21)C1CCCCC1 [Compound IV, (2S)-1-[(2S)-2-Cyclohexyl-2-[(2S)-2-(methylamino)propanamido]acetyl]-N-[(1R)-5-[2-[4-(2-[[(5R)-5-[(2S)-1-[(2S)-2-cyclohexyl-2-[(2S)-2-(methylamino)propanamido]acetyl]pyrrolidine-2-amido]-5,6,7,8-tetrahydronaphthalen-1-yl]oxy]ethyl)phenyl]ethoxy]-1,2,3,4-tetrahydronaphthalen-1-yl]pyrrolidine-2-carboxamide] | 10 to 100 | 100 to 1000 | 10 to 100 |
